Source: paper PMC8482815, “Targeting Host Glycolysis as a Strategy for Antimalarial Development” (Frontiers in Cellular and Infection Microbiology, 2021)
“And” between values parts separate entries of the source, which are not always exact repeats. Equal values may be shown once.

System: human erythrocytes
Assay: Untargeted metabolomics and 13C-glucose tracing of enolase inhibitor treated erythrocytes
Format: cell-based
Conditions: 0h
Description: Freshly collected erythrocytes were washed, resuspended to 10% hematocrit in buffer [25mM HEPES (pH 7.4), 120mM NaCl, 5.4mM KCl, 1.8mM CaCl2, and 1mM NaH2PO4], incubated for 1 hour at 37°C, then centrifuged at 2000xg for 5 minutes at 4°C, resuspended in fresh wash buffer to 30-40% hematocrit, and split into 210µL aliquots of packed erythrocytes. […] All samples were incubated at 37°C shaking at 500 RPM. Triplicate samples of supernatants and packed erythrocytes were collected at 0, 0.5, 1, and 6-hour intervals and snap-frozen in liquid N2.
RBC and media samples were extracted at 1:10 and 1:20 dilutions, respectively, in 5:3:2 MeOH : MeCN:H2O v/v/v, and supernatants analyzed on a Thermo Vanquish UHPLC coupled to a Thermo Q Exactive mass spectrometer, as extensively described ([Nemkov et al., 2015]; [Nemkov et al., 2017]). The extraction buffer was supplemented with 40uM 3-^13C lactate to allow absolute quantification of lactate isotopologues, including lactate generated via glycolysis ([1,2,3-^13C3] enriched) vs. the pentose phosphate pathway ([2,3-^13C2] enriched), as described ([Reisz et al., 2016]). Metabolite assignments, peak area integration and isotopologues distributions were determined using Maven (Princeton University) ([Nemkov et al., 2015]; [Nemkov et al., 2017]).
Data were auto-scaled and normalized to zero-hour time points. Metabolites were removed from the dataset if greater than 50% of the samples contained missing values or the relative standard deviation among replicates exceeded 25%. Additionally, data was filtered using the interquartile range to reduce near-constant values from the experiment by 5%.
A principal component analysis of preprocessed data was plotted with the 95% confidence interval minimum volume enclosing ellipsoid for each respective group (MetaboAnalyst, cluster, plotly). A two-way repeated measures analysis of variance (ANOVA) was performed with multiple comparisons corrected for using a false discovery rate p-value cutoff of 0.05. Metabolite-Pathway analysis was performed using the R package of MetaboAnalyst, as previously described ([Xia and Wishart, 2010]). Metabolite-Protein nodal analysis was performed using omicsnet.ca and as previously described ([Zhou and Xia, 2018]).

[1] = treated erythrocytes, one value per replicate sample, polarity +
[2] = treated erythrocytes, one value per replicate sample, polarity -
[3] = treated erythrocytes, replicate samples

CC(C)(C)C(=O)OCOP(=O)(OCOC(=O)C(C)(C)C)C1CC(O)N(O)C1=O (stereo not shown) [POMSF]
AMP level (metabolomics signal) (replicate samples): 1.48E+06 and 1.22E+06 and 1.21E+06
ATP level (metabolomics signal) (replicate samples): 1.36E+04 and 1.16E+04 and 9.69E+03
Adenine level (metabolomics signal) (replicate samples): 1.41E+05 and 1.42E+05 and 1.51E+05
Cytosine level (metabolomics signal) (replicate samples): 4.50E+04 and 5.15E+04 and 1.27E+05
L-alanine level (metabolomics signal) (replicate samples): 6.40E+06 and 7.71E+06 and 9.55E+06
L-arginine level (metabolomics signal) (replicate samples): 1.10E+07 and 7.60E+06 and 2.77E+06
L-asparagine level (metabolomics signal) (replicate samples): 1.89E+06 and 2.56E+06 and 2.42E+06
L-aspartate level (metabolomics signal) (replicate samples): 1.71E+07 and 2.26E+07 and 2.06E+07
L-cysteine level (metabolomics signal) (replicate samples): 7.54E+05 and 3.33E+05 and 7.35E+04
L-glutamate level (metabolomics signal) (replicate samples): 1.88E+07 and 2.22E+07 and 2.32E+07
L-glutamine level (metabolomics signal) (replicate samples): 2.62E+07 and 2.59E+07 and 2.28E+07
L-histidine level (metabolomics signal) (replicate samples): 1.62E+06 and 1.23E+06 and 1.63E+06
L-isoleucine level (metabolomics signal) (replicate samples): 3.04E+07 and 2.95E+07 and 2.26E+07
L-leucine level (metabolomics signal) (replicate samples): 9.83E+07 and 1.22E+08 and 9.50E+07
L-lysine level (metabolomics signal) (replicate samples): 3.76E+06 and 3.81E+06 and 3.28E+06
L-methionine level (metabolomics signal) (replicate samples): 1.04E+07 and 1.29E+07 and 9.06E+06
L-phenylalanine level (metabolomics signal) (replicate samples): 4.95E+06 and 5.41E+06 and 4.32E+06
L-proline level (metabolomics signal) (replicate samples): 3.86E+07 and 3.62E+07 and 3.21E+07
L-serine level (metabolomics signal) (replicate samples): 1.54E+06 and 1.82E+06 and 2.05E+06
L-threonine level (metabolomics signal) (replicate samples): 2.66E+06 and 3.06E+06 and 2.69E+06
L-tryptophan level (metabolomics signal) (replicate samples): 5.64E+06 and 3.84E+06 and 3.64E+06
L-tyrosine level (metabolomics signal) (replicate samples): 1.11E+07 and 1.27E+07 and 8.94E+06
L-valine level (metabolomics signal) (replicate samples): 9.15E+07 and 1.15E+08 and 1.39E+08
dCMP level (metabolomics signal) (replicate samples): 3.07E+04 and 2.16E+04 and 2.21E+04
dTMP level (metabolomics signal) (replicate samples): 1.28E+06 and 1.67E+06 and 9.76E+05
glycine level (metabolomics signal) (replicate samples): 9.91E+05 and 9.30E+05 and 1.13E+06
N-Acyl-D-aspartate (C06380) metabolite signal [1]: 2.50E+05 and 2.72E+05 (2×)
Poly-gamma-D-glutamate (C05723) metabolite signal [1]: 1.72E+07 and 2.04E+07 and 1.59E+07
D-Ribitol 5-phosphate (C01068) metabolite signal [2]: 2.00E+04 and 3.48E+04 and 2.09E+04
D-glucono-1,5-lactone (C00198) metabolite signal [2]: 5.28E+05 and 7.59E+05 and 7.80E+05
L-Noradrenaline (C00547) metabolite signal [2]: 2.74E+05 and 1.74E+05 and 9.62E+04
Oxalosuccinate (C05379) metabolite signal [2]: 1.90E+05 and 1.88E+05 and 1.84E+05
Pyridoxamine (C00534) metabolite signal [2]: 3.31E+04 and 3.01E+04 and 2.36E+04
Thioredoxin disulfide (C00343) metabolite signal [2]: 8.00E+04 and 1.23E+05 and 3.03E+04
1-4-beta-D-Xylan (metabolite signal) [3]: 2.50E+05 and 2.94E+05 and 2.54E+05
2-Hydroxyglutarate/Citramalate (C02630) metabolite signal [3]: 2.14E+05 and 2.40E+05 and 2.04E+05
5-6-Dihydrothymine (C00906) metabolite signal [3]: 3.14E+05 and 3.41E+05 and 2.85E+05
5-10-Methenyltetrahydrofolate (metabolite signal) [3]: 2.33E+05 and 3.06E+05 and 3.71E+05
5-Hydroxyisourate (C11821) metabolite signal [3]: 2.99E+06 and 4.00E+06 and 4.10E+06
5-L-Glutamyl-taurine (metabolite signal) [3]: 1.28E+05 and 9.38E+04 and 1.74E+05
5-Oxoproline (metabolite signal) [3]: 1.06E+06 and 1.19E+06 and 1.05E+06
(S)(+)-Allantoin (C02350) metabolite signal [3]: 3.96E+04 and 4.19E+04 and 4.78E+04
Allantoate (C00499) metabolite signal [3]: 5.92E+05 and 4.20E+05 and 1.48E+05
Ascorbate (metabolite signal) [3]: 1.27E+05 and 1.55E+05 and 1.07E+05
CMP-N-acetylneuraminate (metabolite signal) [3]: 3.49E+04 and 6.40E+04 and 4.41E+04
Carnosine (metabolite signal) [3]: 1.74E+05 and 2.21E+05 and 3.49E+05
Citrate (C00158) metabolite signal [3]: 3.66E+04 and 3.31E+04 and 3.64E+04
Creatine (metabolite signal) [3]: 2.22E+08 and 2.62E+08 and 3.28E+08
Creatinine (metabolite signal) [3]: 3.21E+06 and 3.75E+06 and 4.22E+06
Cys-Gly (metabolite signal) [3]: 2.17E+06 and 2.00E+06 and 1.46E+06
D-Glucosamine (metabolite signal) [3]: 1.02E+05 and 8.07E+04 and 1.48E+05
D-Glucose (C00031) metabolite signal [3]: 6.82E+06 and 7.47E+06 and 6.93E+06
D-Ribose (C00121) metabolite signal [3]: 1.55E+05 and 2.41E+05 and 2.38E+05
Dehydroascorbate (metabolite signal) [3]: 1.97E+04 and 1.24E+04 and 6.28E+03
Dihydrofolate (metabolite signal) [3]: 2.52E+06 and 2.25E+06 and 7.96E+05
Dimethylglycine (metabolite signal) [3]: 8.88E+05 and 1.01E+06 and 1.45E+06
Diphosphate (C00013) metabolite signal [3]: 6.51E+03 and 2.62E+03 and 7.12E+02
Fumarate (C00122) metabolite signal [3]: 1.66E+05 and 1.93E+05 and 1.68E+05
Glutathione (C00051) metabolite signal [3]: 1.67E+08 and 1.41E+08 and 9.66E+07
Glutathione disulfide (metabolite signal) [3]: 3.84E+05 and 6.78E+05 and 4.93E+05
Hypoxanthine (C00262) metabolite signal [3]: 1.47E+05 and 1.29E+05 and 1.33E+05
IMP (C00130) metabolite signal [3]: 7.71E+04 and 2.73E+04 and 2.17E+04
Inosine (C00294) metabolite signal [3]: 9.47E+04 and 1.13E+05 and 1.20E+05
L-Citrulline (metabolite signal) [3]: 1.15E+06 and 1.84E+06 and 2.36E+06
L-Homoserine (metabolite signal) [3]: 2.11E+05 and 2.32E+05 and 1.47E+05
Lactate (C01432) metabolite signal [3]: 7.24E+06 and 8.30E+06 and 8.24E+06
Malate (C00149) metabolite signal [3]: 5.52E+05 and 5.73E+05 and 5.31E+05
Mannitol (C00392) metabolite signal [3]: 8.67E+04 and 1.22E+05 and 1.45E+05
N-Acetylneuraminate (metabolite signal) [3]: 2.28E+04 and 3.32E+04 and 3.78E+04
N-Glycoloyl-neuraminate (metabolite signal) [3]: 2.22E+05 and 2.27E+05 and 1.72E+05
NAD+ (C00003) metabolite signal [3]: 4.26E+04 and 2.68E+05 and 2.34E+05
Nicotinamide (C00153) metabolite signal [3]: 1.57E+07 and 2.35E+07 and 2.66E+07
Ornithine (metabolite signal) [3]: 2.19E+06 and 2.53E+06 and 2.49E+06
Oxaloacetate (C00036) metabolite signal [3]: 6.97E+04 and 6.01E+04 and 4.98E+04
Phosphoserine (metabolite signal) [3]: 4.87E+04 and 2.38E+05 and 2.25E+05
Putrescine (metabolite signal) [3]: 4.73E+04 and 6.21E+04 and 7.27E+04
Pyridoxal (C00250) metabolite signal [3]: 5.83E+04 and 4.46E+04 and 6.28E+04
Pyruvate (C00022) metabolite signal [3]: 1.18E+06 and 1.33E+06 and 1.20E+06
S-Glutathionyl-L-cysteine (metabolite signal) [3]: 1.80E+05 and 2.28E+05 and 9.16E+04
Sedoheptulose 1-phosphate (C06222) metabolite signal [3]: 5.23E+04 and 6.25E+04 and 4.82E+04
Spermidine (metabolite signal) [3]: 1.16E+07 and 9.80E+06 and 1.05E+07
Spermine (metabolite signal) [3]: 9.70E+06 and 8.73E+06 and 7.99E+06
Succinate (C00042) metabolite signal [3]: 9.79E+04 and 1.14E+05 and 1.10E+05
Thymidine (C00214) metabolite signal [3]: 2.50E+04 and 1.31E+04 and 1.15E+04
UDP (C00015) metabolite signal [3]: 6.45E+05 and 4.64E+05 and 1.60E+05
UDP-N-acetyl-D-glucosamine (metabolite signal) [3]: 3.60E+04 and 3.50E+04 and 3.40E+04
UDP-glucose (C00029) metabolite signal [3]: 1.12E+05 and 1.15E+05 and 9.19E+04
Urate (C00366) metabolite signal [3]: 4.94E+04 and 4.14E+04 and 3.72E+04
Xanthine (C00385) metabolite signal [3]: 2.85E+05 and 3.63E+05 and 3.38E+05
alpha-D-Glucosamine 1-phosphate (metabolite signal) [3]: 1.10E+06 and 1.63E+06 and 3.07E+06
alpha-D-Ribose 1-phosphate (C00620) metabolite signal [3]: 1.48E+05 and 1.44E+05 and 1.26E+05
gamma-Glutamyl-gamma-aminobutyrate (metabolite signal) [3]: 8.69E+04 and 8.91E+04 and 1.07E+05
gamma-L-Glutamyl-D-alanine (metabolite signal) [3]: 2.41E+04 and 3.08E+04 and 2.52E+04
gamma-L-Glutamyl-L-cysteine (metabolite signal) [3]: 4.83E+04 and 5.61E+04 and 6.44E+03
